{"source": "patent US11744859B2", "about": "“Compositions and methods for parenteral administration of therapeutic agents” (EpicentRx, Inc., priority 2017, dated 2023)", "key": {"[1]": {"details": "in vivo; cited from earlier work"}, "[2]": {"test_system": "human lung cancer cells A549", "experiment": "xenografted A549 lung tumor in mice, tumor volume", "type": "in vivo", "details": "50 mg/kg, twice in one week", "procedure": "FIG. 1 depicts activity of control, carboplatin (Carbo, 50 mg/kg), and whole blood mixed with carboplatin (Blood-mix-Carbo, either 50 mg/kg or 100 mg/kg) in treating xenografted A549 lung tumor, as measured by tumor volume after each treatment.\nIn this example, human lung cancer cells A549 were xenografted to mice."}, "[3]": {"test_system": "human colorectal HT-29 cancer cells", "details": "5 mg/kg, twice a week for three weeks", "excerpt": "In this example, human colorectal HT-29 cancer cells will be xenografted to mice."}, "[4]": {"test_system": "sepsis model mice (CLP)", "experiment": "CLP sepsis model mice: survival and live bacterial count in blood", "type": "in vivo, BALB/c mice", "details": "24 hour blood samples from septic mice; 25 mg/kg", "description": "Sepsis model: twenty BALB/c mice (Jackson Labs; 6-8 weeks) were made septic by CLP. Briefly, mice were anesthetized isoflurane (5% induction and 2% maintenance), and subjected to laparotomy. The cecum was exteriorized and ligated distal to the ileocecal valve without causing intestinal obstruction. The cecum was then punctured twice with either a 21 gauge needle, and stool was gently extruded. Lastly, the abdomen was closed 1 mL of saline was injected."}, "[5]": {"test_system": "human HT-29 colorectal cancer cells", "experiment": "xenografted HT-29 colorectal tumor in mice, tumor volume", "type": "in vivo", "details": "12 mg/kg, one time", "procedure": "FIG. 5 depicts activity of control, oxaliplatin (L-OHP, 12 mg/kg), and whole blood mixed with oxaliplatin (Blood-mix-L-OHP, either 12 mg/kg or 24 mg/kg) in treating xenografted HT-29 colorectal tumor, as measured by tumor volume over time (0-40 days) after each treatment."}, "[6]": {"test_system": "human breast carcinoma cells MCF7", "experiment": "orthotopically implanted MCF7 human breast carcinoma in mice, tumor volume", "type": "in vivo, athymic mice (nu/nu)", "details": "either 10 mg/kg or 30 mg/kg, twice per week", "procedure": "(§1) 6-week-old-female athymic mice (nu/nu) were implanted orthotopically with 1×10^7 cells/mL human breast carcinoma cells MCF7 or MCF/Taxol (Taxol resistance line) into their mammary fat pad. […] The treatments started when tumors were 100 mm^3. The paclitaxel blood mixes were prepared by incubating whole blood with paclitaxel and an anticoagulant (CPD) for 30 minutes."}, "[7]": {"test_system": "MCF7/Taxol (Taxol resistance line)", "experiment": "orthotopically implanted MCF7/Taxol human breast carcinoma in mice, tumor volume", "type": "in vivo, athymic mice (nu/nu)", "details": "either 10 mg/kg or 30 mg/kg, twice per week", "procedure": "as §1"}}, "data": [{"smiles": "O=P1(N(CCCl)CCCl)NCCCO1", "note": "(stereo not drawn) [Cyclophosphamide]", "values": [{"measurement": "elimination time of the drug", "setting": "[1]", "result": "3 to 12", "unit": "h"}]}, {"smiles": "CC[C@@]1(O)C(=O)OCc2c1cc1n(c2=O)Cc2cc3c(CN(C)C)c(O)ccc3nc2-1", "note": "[Topotecan]", "values": [{"measurement": "elimination time of the drug", "setting": "[1]", "result": "2 to 3", "unit": "h"}]}, {"smiles": "N.N.O=C([O-])C1(C(=O)[O-])CCC1.[Pt+2]", "note": "[carboplatin]", "values": [{"measurement": "tumor volume compared to control", "setting": "[2]", "result": "tumor volume was reduced"}]}, {"smiles": "COc1cccc2c1C(=O)c1c(O)c3c(c(O)c1C2=O)C[C@@](O)(C(=O)CO)C[C@@H]3O[C@H]1C[C@H](N)[C@H](O)[C@H](C)O1", "note": "[doxorubicin]", "values": [{"measurement": "tumor volume compared to control", "setting": "[3]", "result": "tumor volume is reduced"}]}, {"smiles": "O=P1(NCCCl)OCCCN1CCCl", "note": "(stereo not drawn) [ifosfamide]", "values": [{"measurement": "elimination time of the drug", "setting": "[1]", "result": "7 to 15", "unit": "h"}]}, {"smiles": "C[C@@H](O)[C@H]1C(=O)N2C(C(=O)O)=C(SCCN=CN)C[C@H]12", "note": "[imipenem]", "values": [{"measurement": "live bacterial count", "setting": "[4]", "result": "7.4±0.45", "unit": "log CFU/mL"}]}, {"smiles": "O=C1[O][Pt]2([NH][C@@H]3CCCC[C@H]3[NH]2)[O]C1=O", "note": "[oxaliplatin]", "values": [{"measurement": "tumor volume compared to control", "setting": "[5]", "result": "tumor volume was reduced"}]}, {"smiles": "CC(=O)O[C@H]1C(=O)[C@@]2(C)[C@H]([C@H](OC(=O)c3ccccc3)[C@]3(O)C[C@H](OC(=O)[C@H](O)[C@@H](NC(=O)c4ccccc4)c4ccccc4)C(C)=C1C3(C)C)[C@]1(OC(C)=O)CO[C@@H]1C[C@@H]2O", "note": "[paclitaxel]", "values": [{"measurement": "tumor volume compared to control", "setting": "[6]", "result": "tumor volume was reduced"}, {"measurement": "tumor volume compared to control", "setting": "[7]", "result": "tumor volume was reduced"}]}]}
